Literature values in patent US20220142214A1, “SYNERGISTIC COMPOSITION OF FOOD-BASED AND ORGANIC NUTRIENTS AND METHODS FOR USE AND MANUFACTURE” (priority 2020, published 2022).
Where two headings read alike, the source gives them in different places.

Legend:
[1] = test system: B16-BL6 cells; conditions: dose-dependent
[2] = test system: B16-BL6 cells; conditions: for tumor growth: intraperitoneal administration at time of i.m. injection of B16-BL6 cells
[3] = intraperitoneal administration, syngeneic mice

Structure (SMILES) | number of B16-BL6 colonies in the lungs [1] | tumor growth [2] | toxicity [2, 3] | toxicity ([2]; mouse, in vivo, ip)
O=c1cc(-c2ccc(O)cc2)oc2cc(O)cc(O)c12 [apigenin] | significantly decreased | significant, dose-dependent delay of tumor growth | without toxicity | 
Oc1ccc(C=Cc2cc(O)cc(O)c2)cc1 [resveratrol] |  | significant, dose-dependent delay of tumor growth |  | without toxicity
CC/C(=C(\c1ccccc1)c1ccc(OCCN(C)C)cc1)c1ccccc1 [tamoxifen] | significantly decreased | significant, dose-dependent delay of tumor growth |  | without toxicity
O=c1c(O)c(-c2ccc(O)c(O)c2)oc2cc(O)cc(O)c12 [quercetin] | significantly decreased | significant, dose-dependent delay of tumor growth |  | without toxicity
O=C(O[C@@H]1Cc2c(O)cc(O)cc2O[C@@H]1c1cc(O)c(O)c(O)c1)c1cc(O)c(O)c(O)c1 [EGCG, Epigallocathechin-3-gallate] |  | significant, dose-dependent delay of tumor growth | without toxicity | 
